pIC50: −log10 of the molar value. The source made the active and inactive calls. The calls are words filed in the database; no cut-off is given here.
Tests used:
MCF7 = test: Antiproliferative activity against human MCF7 cells assessed as reduction in cell viability measured after 72 hrs by MTT assay; assay type: functional, cell-based; conditions: MCF7, 72 h
HCT-116 = test: Antiproliferative activity against human HCT116 cells assessed as reduction in cell viability measured after 72 hrs by MTT assay; assay type: functional, cell-based; conditions: HCT-116, 72 h
A549 = test: Antiproliferative activity against human A549 cells assessed as reduction in cell viability measured after 72 hrs by MTT assay; assay type: functional, cell-based; conditions: A549, 72 h
[1] = target: DNA topoisomerase 2-alpha (Homo sapiens) (UniProt P11388); test: Inhibition of human DNA topoisomerase 2 mediated decatenation at 10 uM using kDNA as substrate after 30 mins by ethidium bromide staining-based agarose gel electrophoresis method
Sequence of DNA topoisomerase 2-alpha (Homo sapiens) (P11388 whole entry): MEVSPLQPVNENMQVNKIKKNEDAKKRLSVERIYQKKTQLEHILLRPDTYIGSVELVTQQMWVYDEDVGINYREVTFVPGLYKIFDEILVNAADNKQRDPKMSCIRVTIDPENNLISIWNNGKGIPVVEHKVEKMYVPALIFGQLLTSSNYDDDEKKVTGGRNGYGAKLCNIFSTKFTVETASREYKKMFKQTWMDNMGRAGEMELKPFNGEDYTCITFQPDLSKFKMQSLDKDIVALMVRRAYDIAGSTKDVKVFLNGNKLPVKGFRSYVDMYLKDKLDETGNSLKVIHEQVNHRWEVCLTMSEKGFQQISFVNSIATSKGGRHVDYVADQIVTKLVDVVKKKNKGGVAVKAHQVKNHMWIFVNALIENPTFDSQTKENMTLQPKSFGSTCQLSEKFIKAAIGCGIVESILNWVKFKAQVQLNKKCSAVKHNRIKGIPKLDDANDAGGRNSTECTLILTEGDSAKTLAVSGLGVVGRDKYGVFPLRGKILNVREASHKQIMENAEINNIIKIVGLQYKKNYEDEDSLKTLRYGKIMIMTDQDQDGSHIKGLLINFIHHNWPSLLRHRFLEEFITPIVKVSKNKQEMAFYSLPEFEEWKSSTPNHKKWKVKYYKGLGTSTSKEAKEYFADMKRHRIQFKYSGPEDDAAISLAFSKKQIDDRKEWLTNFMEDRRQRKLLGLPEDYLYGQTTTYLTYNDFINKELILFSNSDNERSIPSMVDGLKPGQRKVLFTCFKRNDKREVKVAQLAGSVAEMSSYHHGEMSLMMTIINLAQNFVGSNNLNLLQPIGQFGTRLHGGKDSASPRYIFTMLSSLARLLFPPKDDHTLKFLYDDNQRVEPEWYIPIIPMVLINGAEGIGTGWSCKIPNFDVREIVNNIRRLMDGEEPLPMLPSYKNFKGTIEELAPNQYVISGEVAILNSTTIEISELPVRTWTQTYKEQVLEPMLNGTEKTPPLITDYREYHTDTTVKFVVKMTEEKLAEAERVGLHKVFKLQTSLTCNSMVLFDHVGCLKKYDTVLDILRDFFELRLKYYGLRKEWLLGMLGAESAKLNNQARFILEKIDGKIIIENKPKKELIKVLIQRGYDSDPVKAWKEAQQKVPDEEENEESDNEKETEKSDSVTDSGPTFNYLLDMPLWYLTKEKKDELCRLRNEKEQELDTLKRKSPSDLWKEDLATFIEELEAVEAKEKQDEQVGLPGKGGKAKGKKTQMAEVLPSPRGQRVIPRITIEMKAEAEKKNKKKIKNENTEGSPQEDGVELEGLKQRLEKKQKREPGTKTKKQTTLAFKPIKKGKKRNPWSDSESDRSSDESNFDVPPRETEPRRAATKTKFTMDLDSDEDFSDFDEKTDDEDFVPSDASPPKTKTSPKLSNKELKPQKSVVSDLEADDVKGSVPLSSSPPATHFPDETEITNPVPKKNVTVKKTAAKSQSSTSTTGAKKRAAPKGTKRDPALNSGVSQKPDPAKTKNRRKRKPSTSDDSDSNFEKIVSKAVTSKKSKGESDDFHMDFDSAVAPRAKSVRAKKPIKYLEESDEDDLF

[2] = target: T1, DNA topoisomerase 1 (Escherichia coli (strain K12)) (UniProt P06612); test: Inhibition of Escherichia coli topoisomerase 1 mediated DNA relaxation at 10 uM using plasmid pMT-puro DNA as substrate after 30 mins by ethidium bromide staining-based agarose gel electrophoresis method
T1 sequence (whole entry): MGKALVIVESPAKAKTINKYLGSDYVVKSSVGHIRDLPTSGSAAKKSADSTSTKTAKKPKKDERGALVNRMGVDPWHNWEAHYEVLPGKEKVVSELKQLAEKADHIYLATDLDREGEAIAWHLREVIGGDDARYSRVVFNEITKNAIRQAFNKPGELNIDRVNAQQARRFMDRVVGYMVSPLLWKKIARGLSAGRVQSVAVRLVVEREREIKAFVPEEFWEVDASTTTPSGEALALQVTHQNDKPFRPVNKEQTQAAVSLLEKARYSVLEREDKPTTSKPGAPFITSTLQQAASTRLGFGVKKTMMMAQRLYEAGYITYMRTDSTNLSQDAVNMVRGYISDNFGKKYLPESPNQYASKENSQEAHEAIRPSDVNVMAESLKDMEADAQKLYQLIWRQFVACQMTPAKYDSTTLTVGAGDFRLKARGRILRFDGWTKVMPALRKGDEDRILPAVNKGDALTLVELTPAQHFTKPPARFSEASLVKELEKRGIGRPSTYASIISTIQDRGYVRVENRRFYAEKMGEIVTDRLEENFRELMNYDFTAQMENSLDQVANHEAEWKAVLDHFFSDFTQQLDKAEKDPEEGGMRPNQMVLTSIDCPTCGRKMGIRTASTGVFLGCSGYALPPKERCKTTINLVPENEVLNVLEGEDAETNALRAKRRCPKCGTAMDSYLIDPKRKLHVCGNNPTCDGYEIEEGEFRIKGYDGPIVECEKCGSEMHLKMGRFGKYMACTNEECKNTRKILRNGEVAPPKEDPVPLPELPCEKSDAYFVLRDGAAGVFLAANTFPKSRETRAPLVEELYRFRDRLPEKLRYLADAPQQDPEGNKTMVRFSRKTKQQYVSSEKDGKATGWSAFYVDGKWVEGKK

[3] = target: T1, DNA topoisomerase 1 (Escherichia coli (strain K12)); test: Inhibition of Escherichia coli topoisomerase 1 mediated DNA relaxation at 1 uM using plasmid pMT-puro DNA as substrate after 30 mins by ethidium bromide staining-based agarose gel electrophoresis method
[4] = target: T1, DNA topoisomerase 1 (Escherichia coli (strain K12)); test: Inhibition of Escherichia coli topoisomerase 1 mediated DNA relaxation using plasmid pMT-puro DNA as substrate after 30 mins by ethidium bromide staining-based agarose gel electrophoresis method

## CO[C@@H]1/C=C(\C)C[C@H](O)[C@]2(O)[C@H](CC2(C)C)/C(CO)=C\1
MCF7
  pIC50: < 5.00
HCT-116
  pIC50: < 5.00
A549
  pIC50: < 5.00
[1]
  inhibition: inactive
[2]
  inhibition: inactive

## CCCCCCC[C@@H]1Cc2cc(O)c(C(=O)O)c(O)c2[C@H](O)O1
MCF7
  pIC50: < 5.00
HCT-116
  pIC50: < 5.00
A549
  pIC50: < 5.00
[1]
  inhibition: Active
[2]
  inhibition: inactive

## CC[C@@]1(O)C(=O)OCc2c1cc1n(c2=O)Cc2cc3ccccc3nc2-1
[3]
  inhibition: Active

## CCCCCCC[C@@H]1Cc2cc(O)c(C(=O)O)c3c2[C@H](O1)[C@H]1[C@@H](OC)/C=C(/CO)[C@H]2CC(C)(C)[C@]2(O)[C@@H](O)C[C@]1(C)O3
MCF7
  pIC50: < 5.00
HCT-116
  pIC50: < 5.00
A549
  pIC50: < 5.00
[1]
  inhibition: inactive
[2]
  inhibition: inactive

## CO[C@@H]1/C=C(\C)C[C@H](OC(C)=O)[C@]2(O)[C@H](CC2(C)C)/C(COC(C)=O)=C\1
MCF7
  pIC50: < 5.00
HCT-116
  pIC50: < 5.00
A549
  pIC50: < 5.00
[1]
  inhibition: inactive
[2]
  inhibition: inactive

## CCCCCCC[C@@H]1Cc2cc(O)c(C(=O)O)c3c2[C@H](O1)[C@H]1[C@@H](OC)/C=C(/COC(C)=O)[C@H]2CC(C)(C)[C@]2(O)[C@@H](O)C[C@]1(C)O3
MCF7
  pIC50: 5.05
HCT-116
  pIC50: 5.22
A549
  pIC50: 5.20
[1]
  inhibition: inactive
[2]
  inhibition: Active

## C[C@H]([C@H](C)N1CC(=O)NC(=O)C1)N1CC(=O)NC(=O)C1
[1]
  inhibition: Active

## C=C1CC[C@@H]2[C@H]3O[C@H](CCCCCCC)Cc4cc(O)c(C(=O)O)c(c43)O[C@@]2(C)CC[C@@H]2[C@@H]1CC2(C)C
MCF7
  pIC50: 5.14
HCT-116
  pIC50: 5.41
A549
  pIC50: 5.30
[1]
  inhibition: Active
[4]
  inhibition: Dose-dependent effect
[2]
  inhibition: Active

## CCCCCCC[C@@H]1Cc2cc(O)c(C(=O)O)c3c2[C@H](O1)[C@H]1[C@@H](OC)/C=C(/COC(C)=O)[C@H]2CC(C)(C)[C@]2(O)[C@@H](OC(C)=O)C[C@]1(C)O3
MCF7
  pIC50: < 5.00
HCT-116
  pIC50: < 5.00
A549
  pIC50: < 5.00
[1]
  inhibition: inactive
[2]
  inhibition: inactive

From ChEMBL document CHEMBL4385619, “Identification of topoisomerases as molecular targets of cytosporolide C and its analog” (Bioorg Med Chem, 2019)
